One may read the EC50 as the concentration at which the effect is half-maximal. A higher EC50 goes with a less potent agent. A word on the IC50: it is the midpoint of a concentration-inhibition curve.

One assay deals with zebrafish embryos. As to the kind of experiment: Zebrafish response (anaesthesia) assay, touch response/swim behaviour. The note with it: Danio rerio, 1.5 h; complete anaesthesia (scale 1) in 50% of AB wild type embryos (54 hpf), 90 min at 28° C. The assay is classed as in vivo. From the text:
Briefly, the ZEA assay involves applying essential oils, fractions or individual compounds to developmentally staged zebrafish embryos followed by monitoring of embryonic touch response/swim behaviour and evaluation of the dose response relationship for each substance. Using a four point scale to describe the embryonic behaviours (Table 4), initial analysis focused on monitoring and recording these changes and evaluating the level of bioactivity. The effective concentration to generate complete anaesthesia in 50% of the embryos (EC50), were evaluated as follows:
Compounds are tested on developmentally staged AB “wild type” zebrafish embryos (54 hpf+/−2 hpf) at concentrations ranging between 10 and 400 μM.
Each compound is diluted in a 95% ethanol or DMSO carrier to create a working stock solution from which appropriate dilutions are made in standard embryo E3 media.
1000 μl of each concentration or appropriate carrier control are added to 10 wild type AB embryos in a single well of a 24 well plate, in duplicate.
The embryos are incubated for 90 min at 28° C. (optimal temperature for embryonic growth) in the diluted compound.
A four point scale (Table 4) is used to evaluate the touch response and swim behaviour for each embryo in all wells.
The effectiveness of the compound will be based on its ability to generate complete anaesthesia (scale: 1) in 50% of the embryos at a given concentration (EC50).
The EC50 values are calculated using GraphPad Prism® software to analyze the log (dose) response curves.

Assay [1] relates to voltage-gated Na+ channels. As to the kind of experiment: Sodium (Na+) channel analysis in rat DRG neurons using whole cell patch-clamp. The assay is classed as cell-based. The note with it: Na+ currents in isolated rat DRG neurons, 3 min in presence of drug, read-out: IC50 range. As for the experimental part: Isolated DRG neurons were suspended in primary neuron basal media and placed on glass coverslips for incubation in humidified atmosphere of 5% CO2 at 37° C. Coverslips carrying cells was transferred to the bath of an inverted microscope (Zeiss), continuously perfused with oxygenated artificial cerebro-spinal fluid (ACSF) containing (in mM) 124 NaCl, 2.5 KCl, 2 CaCl2, 1 MgSO4, 25 NaHCO3, 1 NaH2PO4, and 10 glucose, at a rate of 2-3 ml/min. Recording of whole-cell membrane currents were made at room temperature. Recording pipette (4-6 MS2) was filled with internal solution containing (in mM) 145 K-gluconate, 5 NaCl, 1 MgCl2, 0.2 EGTA, 10 HEPES, 2 Mg-ATP, 0.1 Na-GTP, and 10 phosphocreatine. To isolate Na^+ currents, DRG neurons were superfused with ACSF containing tetraethylammonium chloride (TEA) 5 mM, cesium chloride (CsCl) 100 μM and cadmium chloride (CdCl) 1 mM, to block potassium and calcium currents. NQ compounds were freshly dissolved in ASCF containing TEA, CsCl and CdCl, prior application via the bath.
For recording Na^+ currents, cells were held at −60 mV before applying a conditioning hyperpolarizing step (50 ms) to −90 mv to reactivate the voltage-gated Na^+ channels. The conditioning pulse was followed by depolarizing (150 ms) test pulses to 50 mV in 10 mV increments. Na^+ currents were recorded in absence, after 3 min in presence of the drugs and after a recovery time of 3 min.
A general note: In patch-clamp work, channel activity is measured electrically.

`CC(C)=CCC/C(C)=C/CN` (single isomer, unassigned) [NQ 2981, (E)-3,7-dimethylocta-2,6-dien-1-amine] returned an EC50 in the assay with zebrafish embryos of 217 µM. Also, in assay [1], the IC50 was below 100 µM.

Molecule `COC/C=C(\C)CCC=C(C)C` [NQ 2976, (E)-1-methoxy-3,7-dimethylocta-2,6-diene] registered an EC50 with zebrafish embryos of 874 µM. Besides, the IC50 in assay [1] is 1000 to 5000 µM.

As to `CC(C)=CCC/C(C)=C/COCc1ccccc1` [NQ 2977, (E)-((3,7-dimethylocta-2,6-dienyloxy)methyl)benzene], the IC50 in assay [1] was 1000 to 5000 µM.

`CC(C)=CCCC(C)=CC(=O)O` [NQ 2978, 3,7-dimethyloct-2,6-dienoic acid] had an EC50 in the assay on zebrafish embryos of 71.1 µM. The IC50 in assay [1] is above 10000 µM.

Molecule `CC(C)=CCC/C(C)=C/CNC(=O)c1ccccc1` [NQ 2982, (E)-N-(3,7-dimethylocta-2,6-dienyl)benzamide] returned an EC50 in the assay on zebrafish embryos of 103 µM. Moreover, the half-inhibitory concentration (IC50) in assay [1] was in the range of 1000 to 5000 µM.

Regarding `CC(C)=CCC/C(C)=C/C(=O)O` [NQ 2984, (E)-3,7-dimethylocta-2,6-dienoic acid], the EC50 in the assay on zebrafish embryos is above 200 µM. Besides, in assay [1], the IC50 lay within 1000 to 5000 µM.

Take `CC(=O)NC/C=C(\C)CCC=C(C)C` [NQ 2985, (E)-N-(3,7-dimethylocta-2,6-dienyl)acetamide]: the EC50 in the assay on zebrafish embryos was determined as 264 µM. Further, the IC50 in assay [1] lay within 1000 to 5000 µM.

On to `CC(C)=CCC/C(C)=C/C(=O)Nc1ccccc1` [NQ 2986, (E)-3,7-dimethyl-N-phenylocta-2,6-dienamide], for which, in the assay with zebrafish embryos, the EC50 worked out at 449 µM. In assay [1], the IC50 was 5000 to 10000 µM.

As for `CC(C)=CCC/C(C)=C/CNC(=O)c1ccccc1O` [NQ 2987, (E)-N-(3,7-dimethylocta-2,6-dienyl)-2-hydroxybenzamide], the EC50 in the assay with zebrafish embryos turned out to be 134 µM. The IC50 in assay [1] was 1000 to 5000 µM.

For `CC(C)=CCC/C(C)=C/C(=O)N(C)C` [NQ 2988, (E)-N,N,3,7-tetramethylocta-2,6-dienamide], the IC50 in assay [1] is 1000 to 5000 µM.

With `CC(C)=CCC/C(C)=C/CN(C)C` [NQ 2990, (E)-N,N,3,7-tetramethylocta-2,6-dien-1-amine], the IC50 in assay [1] lay in the range of 1000 to 5000 µM.

With `CNC(=O)/C=C(\C)CCC=C(C)C` [NQ 2991, (E)-N,3,7-trimethylocta-2,6-dienamide], in assay [1], the IC50 is 1000 to 5000 µM.

With `CC(C)=CCC/C(C)=C/C(N)=O` [NQ 2992, (E)-3,7-dimethylocta-2,6-dienamide], the IC50 in assay [1] fell in the range of 100 to 1000 µM.

As for `CC(C)=CCC/C(C)=C\C=O` [NQ 3000, (Z)-3,7-dimethylocta-2,6-dienal], the IC50 in assay [1] lay within 5000 to 10000 µM.

Consider `CC(C)=CCC/C(C)=C\C(=O)O` [NQ 3001, (Z)-3,7-dimethylocta-2,6-dienoic acid], for which, in assay [1], the IC50 is above 10000 µM.

As for `CNC/C=C(\C)CCC=C(C)C` [NQ 3007, (E)-N,3,7-trimethylocta-2,6-dien-1-amine], the concentration for half-maximal inhibition (IC50) in assay [1] lay in the range of 1000 to 5000 µM.

Take `CC(C)=CCCC(C)=Cc1nn[nH]n1` [NQ 3045, 5-(2,6-dimethylhepta-1,5-dien-1-yl)-2H-tetrazole]: the 50% inhibitory concentration (IC50) in assay [1] fell in the range of 1000 to 5000 µM.

Regarding `CC(C)=CCC/C(C)=C/S(C)(=O)=O` [NQ 3047, (E)-2,6-dimethyl-1-(methylsulfonyl)hepta-1,5-diene], in assay [1], the IC50 lay within 1000 to 5000 µM.

Consider `CC(C)=CCC/C(C)=C\S(=O)(=O)N(C)C` [NQ 3050, (Z)-N,N,2,6-tetramethylhepta-1,5-diene-1-sulfonamide], for which the IC50 in assay [1] lay in the range of 100 to 1000 µM.

On to `CC(C)=CCC/C(C)=C/S(=O)(=O)N(C)C` [NQ 3051, (E)-N,N,2,6-tetramethylhepta-1,5-diene-1-sulfonamide], for which, in assay [1], the half-maximal inhibitory concentration (IC50) was in the range of 100 to 1000 µM.

`CON(C)C(=O)/C=C(\C)CCC=C(C)C` [NQ 3052, (E)-N-methoxy-N,3,7-trimethylocta-2,6-dienamide]: in assay [1], the half-inhibitory concentration (IC50) is 100 to 1000 µM.

For `CC(C)=CCC/C(C)=C/CS(C)(=O)=O` [NQ 3053, (E)-3,7-dimethyl-1-(methylsulfonyl)octa-2,6-diene], the IC50 in assay [1] was 1000 to 5000 µM.

In the case of `CC(C)=CCC/C(C)=C/C[S+](C)[O-]` (stereo not shown) [NQ 3054, (E)-3,7-dimethyl-1-(methylsulfinyl)octa-2,6-diene], the IC50 in assay [1] lay within 1000 to 5000 µM.

For the molecule `CC(C)=CCC/C(C)=C/C(=O)N(C)O` [NQ 3055, (E)-N-hydroxy-N,3,7-trimethylocta-2,6-dienamide], in assay [1], the IC50 is 100 to 1000 µM.

Consider `CC(C)=CCC/C(C)=C/[S+](C)[O-]` (stereo not shown) [NQ 3057, (E)-2,6-dimethyl-1-(methylsulfinyl)hepta-1,5-diene], for which the IC50 in assay [1] lay in the range of 1000 to 5000 µM.

As to `CNS(=O)(=O)/C=C(\C)CCC=C(C)C` [NQ 3060, (E)-N,2,6-trimethylhepta-1,5-diene-1-sulfonamide], the IC50 in assay [1] was 1000 to 5000 µM.

`CNS(=O)(=O)/C=C(/C)CCC=C(C)C` [NQ 3061, (Z)-N,2,6-trimethylhepta-1,5-diene-1-sulfonamide]: the IC50 in assay [1] was in the range of 100 to 1000 µM.

With `CC(C)=CCC/C(C)=C\[S+](C)[O-]` (stereo not shown) [NQ 3062, (Z)-2,6-dimethyl-1-(methylsulfinyl)hepta-1,5-diene], the IC50 in assay [1] is 1000 to 5000 µM.

`CC(C)=CCC/C(C)=C/S(N)(=O)=O` [NQ 3063, (E)-2,6-dimethylhepta-1,5-diene-1-sulfonamide]: the IC50 in assay [1] lay within 1000 to 5000 µM.

On to `CC(C)=CCC/C(C)=C/S(=O)(=O)NCC(F)(F)F` [NQ 3064, (E)-2,6-dimethyl-N-(2,2,2-trifluoroethyl)hepta-1,5-diene-1-sulfonamide], for which the IC50 in assay [1] was in the range of 1000 to 5000 µM.

Consider `CC(C)=CCC/C(C)=C/C(O)C(F)(F)F` (stereo not shown) [NQ 3065, (E)-1,1,1-trifluoro-4,8-dimethylnona-3,7-dien-2-ol], for which the IC50 in assay [1] was 100 to 1000 µM.

Take `CC(C)=CCC/C(C)=C/C(=O)C(F)(F)F` [NQ 3066, (E)-1,1,1-trifluoro-4,8-dimethylnona-3,7-dien-2-one]: the IC50 in assay [1] is 1000 to 5000 µM.

Turning to `CC(C)=CCC/C(C)=C/C(O)(C(F)(F)F)C(F)(F)F` [NQ 3067, (E)-1,1,1-trifluoro-4,8-dimethyl-2-(trifluoromethyl)nona-3,7-dien-2-ol], in assay [1], the IC50 was in the range of 100 to 1000 µM.

In the case of `CC(C)=CCC/C(C)=C\S(=O)(=O)NCC(F)(F)F` [NQ 3069, (Z)-2,6-dimethyl-N-(2,2,2-trifluoroethyl)hepta-1,5-diene-1-sulfonamide], in assay [1], the IC50 was in the range of 100 to 1000 µM.

Take `CC(C)=CCC/C(C)=C/S(=O)(=O)Nc1ccccc1` [NQ 3070, (E)-2,6-dimethyl-N-phenylhepta-1,5-diene-1-sulfonamide]: the IC50 in assay [1] lay in the range of 100 to 1000 µM.

As for `CC(C)=CCC/C(C)=C/S(=O)(=O)NCc1ccccc1` [NQ 3071, (E)-N-benzyl-2,6-dimethylhepta-1,5-diene-1-sulfonamide], in assay [1], the IC50 lay in the range of 100 to 1000 µM.

As for `CCC(N)/C=C(\C)CCC=C(C)C` (stereo not shown) [NQ 3078, (E)-5,9-dimethyldeca-4,8-dien-3-amine], the IC50 in assay [1] is below 100 µM.

With `CC(C)=CCC/C(C)=C/C(C)N` (stereo not shown) [NQ 3079, (E)-4,8-dimethylnona-3,7-dien-2-amine], the IC50 in assay [1] fell in the range of 100 to 1000 µM.

Consider `CCCC(N)/C=C(\C)CCC=C(C)C` (stereo not shown) [NQ 3081, (E)-6,10-dimethylundeca-5,9-dien-4-amine], for which the IC50 in assay [1] was below 100 µM.

With `CC(C)=CCC/C(C)=C/C(N)C(C)C` (stereo not shown) [NQ 3082, (E)-2,5,9-trimethyldeca-4,8-dien-3-amine], in assay [1], the IC50 was below 100 µM.

As for `CC(C)=CCC/C(C)=C/C(O)C(C)C` (stereo not shown) [NQ 3083, (E)-2,5,9-trimethyldeca-4,8-dien-3-ol], in assay [1], the IC50 was in the range of 1000 to 5000 µM.

With `CC(C)=CCC/C(C)=C/C(N)CCCO` (stereo not shown) [NQ 3084, (E)-4-amino-6,10-dimethylundeca-5,9-dien-1-ol], the IC50 in assay [1] lay in the range of 100 to 1000 µM.

For the molecule `CC(C)=CCC/C(C)=C/C(N)c1ccccc1` (stereo not shown) [NQ 3085, (E)-3,7-dimethyl-1-phenylocta-2,6-dien-1-amine], the IC50 in assay [1] was below 100 µM.

As for `CC(C)=CCC/C(C)=C/C(N)Cc1ccccc1` (stereo not shown) [NQ 3089, (E)-4,8-dimethyl-1-phenylnona-3,7-dien-2-amine], the half-inhibitory concentration (IC50) in assay [1] was below 100 µM.

Values taken from US20130267571A1, “TERPENOID ANALOGUES AND USES THEREOF FOR TREATING NEUROLOGICAL CONDITIONS” (NeuroQuest Inc., priority 2010, published 2013).
